Tests used:
[1] = Antagonist activity against human CXCR3 expressed in human PBMC assessed as inhibition of cell migration in response to ITAC in plasma
[2] = Antagonist activity against human CXCR3 expressed in human PBMC assessed as inhibition of cell migration in response to IP10 in buffer
[3] = Antagonist activity against human CXCR3 expressed in human PBMC assessed as inhibition of cell migration in response to ITAC in RPMI buffer
[4] = Antagonist activity against human CXCR3 expressed in human PBMC assessed as inhibition of cell migration in response to MIG in buffer

Row | SMILES | IC50 [1] [nM] | further results
1 | CCOc1ccc(-n2c([C@@H](C)N(C(=O)Cc3ccc(F)c(C(F)(F)F)c3)C3CCN(C(C)C)CC3)nc3ncccc3c2=O)cc1 [(R)-N-(1-(3-(4-ethoxyphenyl)-4-oxo-3,4-dihydropyrido[2,3-d]pyrimidin-2-yl)ethyl)-2-(4-fluoro-3-(trifluoromethyl)phenyl)-N-(1-isopropylpiperidin-4-yl)acetamide] | 5 | 
2 | CCOc1ccc(-n2c([C@@H](C)N(CC3CCN(C)CC3)C(=O)Cc3ccc(F)c(C(F)(F)F)c3)nc3ncccc3c2=O)cc1 [(R)-N-(1-(3-(4-ethoxyphenyl)-4-oxo-3,4-dihydropyrido[2,3-d]pyrimidin-2-yl)ethyl)-2-(4-fluoro-3-(trifluoromethyl)phenyl)-N-((1-methylpiperidin-4-yl)methyl)acetamide] | 20 | 
3 | CCOc1ccc(-n2c([C@@H](C)N(Cc3cccnc3)C(=O)Cc3ccc(F)c(C(F)(F)F)c3)nc3ncccc3c2=O)cc1 [(R)-N-(1-(3-(4-ethoxyphenyl)-4-oxo-3,4-dihydropyrido[2,3-d]pyrimidin-2-yl)ethyl)-2-(4-fluoro-3-(trifluoromethyl)phenyl)-N-(pyridin-3-ylmethyl)acetamide] | 20 | 
4 | CCOc1ccc(-n2c([C@@H](C)N(CCS(=O)(=O)CC)C(=O)Cc3ccc(F)c(C(F)(F)F)c3)nc3ncccc3c2=O)cc1 [(R)-N-(1-(3-(4-ethoxyphenyl)-4-oxo-3,4-dihydropyrido[2,3-d]pyrimidin-2-yl)ethyl)-N-(2-(ethylsulfonyl)ethyl)-2-(4-fluoro-3-(trifluoromethyl)phenyl)acetamide] | 22 | 
5 | CCOc1ccc(-n2c([C@@H](C)N(C(=O)Cc3ccc(F)c(C(F)(F)F)c3)C3CCN(C(C)=O)CC3)nc3ncccc3c2=O)cc1 [(R)-N-(1-acetylpiperidin-4-yl)-N-(1-(3-(4-ethoxyphenyl)-4-oxo-3,4-dihydropyrido[2,3-d]pyrimidin-2-yl)ethyl)-2-(4-fluoro-3-(trifluoromethyl)phenyl)acetamide] | 131 | 
6 | CCOc1ccc(-n2c([C@@H](C)N(C[C@@H]3CCCN3C(C)C)C(=O)Cc3ccc(F)c(C(F)(F)F)c3)nc3ncccc3c2=O)cc1 [N-((R)-1-(3-(4-ethoxyphenyl)-4-oxo-3,4-dihydropyrido[2,3-d]pyrimidin-2-yl)ethyl)-2-(4-fluoro-3-(trifluoromethyl)phenyl)-N-(((S)-1-isopropylpyrrolidin-2-yl)methyl)acetamide] | 80 | 
7 | CCOc1ccc(-n2c([C@@H](C)N(C[C@H]3CCCN3)C(=O)Cc3ccc(F)c(C(F)(F)F)c3)nc3ncccc3c2=O)cc1 [N-((R)-1-(3-(4-ethoxyphenyl)-4-oxo-3,4-dihydropyrido[2,3-d]pyrimidin-2-yl)ethyl)-2-(4-fluoro-3-(trifluoromethyl)phenyl)-N-((R)-pyrrolidin-2-ylmethyl)acetamide] | 20 | 

Continued, in another order:

Row | IC50 [1] [nM] | SMILES | further results
8 | 17 | CCOc1ccc(-n2c([C@@H](C)N(Cc3cccnc3)C(=O)Cc3cc(C(F)(F)F)cc(C(F)(F)F)c3)nc3ccccc3c2=O)cc1 [(R)-2-(3,5-bis(trifluoromethyl)phenyl)-N-(1-(3-(4-ethoxyphenyl)-4-oxo-3,4-dihydroquinazolin-2-yl)ethyl)-N-(pyridin-3-ylmethyl)acetamide] | 
9 | 58 | CCOc1ccc(-n2c([C@@H](C)N(Cc3ccc[n+]([O-])c3)C(=O)Cc3ccc(OC(F)(F)F)cc3)nc3ncccc3c2=O)cc1 [(R)-3-((N-(1-(3-(4-ethoxyphenyl)-4-oxo-3,4-dihydropyrido[2,3-d]pyrimidin-2-yl)ethyl)-2-(4-(trifluoromethoxy)phenyl)acetamido)methyl)pyridine 1-oxide] | 
10 | 59 | CCOc1ccc(-n2c([C@@H](C)N(Cc3cc(C)no3)C(=O)Cc3ccc(F)c(C(F)(F)F)c3)nc3ncccc3c2=O)cc1 [(R)-N-(1-(3-(4-ethoxyphenyl)-4-oxo-3,4-dihydropyrido[2,3-d]pyrimidin-2-yl)ethyl)-2-(4-fluoro-3-(trifluoromethyl)phenyl)-N-((3-methylisoxazol-5-yl)methyl)acetamide] | 
11 | 162 | CCOc1ccc(-n2c([C@@H](C)N(C(=O)Cc3ccc(F)c(C(F)(F)F)c3)C3CCOCC3)nc3ncccc3c2=O)cc1 [(R)-N-(1-(3-(4-ethoxyphenyl)-4-oxo-3,4-dihydropyrido[2,3-d]pyrimidin-2-yl)ethyl)-2-(4-fluoro-3-(trifluoromethyl)phenyl)-N-(tetrahydro-2H-pyran-4-yl)acetamide] | 
12 | 23 | CCOc1ccc(-n2c([C@@H](C)N(Cc3cccnc3)C(=O)Cc3ccc(F)c(C(F)(F)F)c3)nc3cnccc3c2=O)cc1 [(R)-N-(1-(3-(4-ethoxyphenyl)-4-oxo-3,4-dihydropyrido[3,4-d]pyrimidin-2-yl)ethyl)-2-(4-fluoro-3-(trifluoromethyl)phenyl)-N-(pyridin-3-ylmethyl)acetamide] | 
13 | 450 | CCOc1ccc(-n2c([C@@H](C)N(Cc3cccnc3)C(=O)Cn3cnc(C(F)(F)F)c3)nc3ccccc3c2=O)cc1 [(R)-N-(1-(3-(4-ethoxyphenyl)-4-oxo-3,4-dihydroquinazolin-2-yl)ethyl)-N-(pyridin-3-ylmethyl)-2-(4-(trifluoromethyl)-1H-imidazol-1-yl)acetamide] | 
14 | 15 | CCS(=O)(=O)CCN(C(=O)Cc1ccc(F)c(C(F)(F)F)c1)[C@H](C)c1nc2ncccc2c(=O)n1-c1ccc(OCC(F)(F)F)cc1 [(R)-N-(2-(ethylsulfonyl)ethyl)-2-(4-fluoro-3-(trifluoromethyl)phenyl)-N-(1-(4-oxo-3-(4-(2,2,2-trifluoroethoxy)phenyl)-3,4-dihydropyrido[2,3-d]pyrimidin-2-yl)ethyl)acetamide] | IC50 [2]: 0.4 nM; IC50 [3]: 0.8 nM; IC50 [4]: 0.6 nM
15 | 10 | CCOc1ccc(-n2c([C@@H](C)N(C[C@H]3CCCN3C(C)C)C(=O)Cc3ccc(F)c(C(F)(F)F)c3)nc3ncccc3c2=O)cc1 [N-((R)-1-(3-(4-ethoxyphenyl)-4-oxo-3,4-dihydropyrido[2,3-d]pyrimidin-2-yl)ethyl)-2-(4-fluoro-3-(trifluoromethyl)phenyl)-N-(((R)-1-isopropylpyrrolidin-2-yl)methyl)acetamide] | 

Source: BindingDB's records for doi:10.1016/j.bmcl.2009.07.032 (Amgen, 2009)
